Source: US20040072865A1, “Aryl piperidine derivatives as inducers of ldl-receptor expression” (priority 2003, published 2004)
Where two headings read alike, the source gives them in different places.

Experiments:
[1] = tested on: LDL-r promoter; experiment: LDL-r promoter luciferase reporter gene assay in stably transfected HepG2 cells; type: cell-based, human; conditions: read-out: In vitro (IC50)
[2] = tested on: fat-fed hamsters; experiment: Oral administration to fat-fed hamsters, reduction in VLDL/LDL cholesterol and TG plasmatic levels; type: in vivo, hamster; conditions: for ED50: Mesocricetus auratus, 72 h, fat-fed hamsters, oral, once a day for 3 days, reductions in VLDL/LDL cholesterol and TG plasmatic levels, read-out: In vivo (ED50)
Description: The in vivo profile of the compounds is evaluated by oral administration of the compounds of the invention to fat-fed hamsters. Measurements of VLDL/LDL cholesterol and triglycerides upon treatment allow to determine the activity.
Compounds were prepared for oral administration by milling with 0.5% hydroxypropylmethylcellulose and 5% Tween 80. Hamsters were fed for 2 weeks with a diet containing 0.2% of cholesterol and 10% of coconut oil. Then compounds were administrated once a day for 3 days, from 20 to 0.2 mg/kg. Plasma lipid levels including total cholesterol, VLDL/LDL cholesterol, VLDL/LDL triglycerides and HDL-cholesterol were determinated after ultracentrifugation (density 1.063 g/ml to separate VLDL/LDL fraction and HDL fraction) using the Biomerieux erizymatic kit. Reductions in VLDL/LDL cholesterol and TG plasmatic levels were calculated taking solvant treated animals as control and ED50 of each compound was determined.

Q: For `Cc1ccc(C2CCN(CCCCNC(=O)c3ccc(-c4ccc(C#N)cc4)cc3)CC2)c(OP(=O)(O)O)c1`, which melting point is on record?
A: 70 °C

Q: Which melting point does the source give for `CCOP(=O)(OCC)Oc1cc(CC)ccc1C1CCN(CCCCNC(=O)c2ccc(NC(=O)c3ccc(Cl)cc3)cc2)CC1` here?
A: 158 to 160 °C

Q: Which IC50 [1] does the source give for `Cc1ccc(C2CCN(CCCCNC(=O)c3ccc(NC(=O)c4ccc(Cl)cc4)cc3)CC2)c(O)c1.Cl` [Example 1, 4-(4-chloro-benzoylamino)-N-{4-[4-(5-methyl-2-piperidinyl-phenol)]-butyl}-benzamide Hydrochloride] here?
A: 30 nM

Q: And the “In vivo (ED50)” value ([2]; hamster, in vivo, po)?
A: 10 to 15 mg/kg

Q: What does the source list for `CC(=O)Oc1cc(C)ccc1C1CCN(CCCCNC(=O)c2ccc(NC(=O)c3ccc(Cl)cc3)cc2)CC1` [Example 2, Acetic Acid 2-(1-{4-[4-(4-chloro-benzoylamino)-benzoylamino]-butyl}-piperidin-4-yl)-5-methyl-phenyl Ester]?
A: ED50 [2]: 5 mg/kg; melting point: 210 °C

Q: With `CCOP(=O)(OCC)Oc1cc(C)ccc1C1CCN(CCCCNC(=O)c2ccc(NC(=O)c3ccc(Cl)cc3)cc2)CC1` [Example 3, Phosphoric Acid 2-(1-{4-[4-(4-chloro-benzoylamino)-benzoylamino]-butyl}-piperidin-4-yl)-5-methyl-phenyl Ester Diethyl Ester] as the compound, how does the IC50 ([1]; Homo sapiens, HepG2 cells with LDL-r promoter-luciferase construct, 24 hours incubation, induction of luciferase activity) read?
A: 30 nM

Q: And the ED50 [2]?
A: 5 mg/kg

Q: And the melting point?
A: 230 °C

Q: With `CCc1ccc(C2CCN(CCCCNC(=O)c3ccc(NC(=O)c4ccc(Cl)cc4)cc3)CC2)c(OC(C)=O)c1` [Example 5, Acetic Acid 2-(1-{4-[4-(4-chloro-benzoylamino)-benzoylamino]-butyl}-piperidin-4-yl)-5-ethyl-phenyl Ester] as the compound, how does the melting point read?
A: 192 to 194 °C

Q: For `CCc1ccc(C2CCN(CCCCNC(=O)c3ccc(-c4ccc(C#N)cc4)cc3)CC2)c(O)c1` [Example 6, 4′-Cyano-biphenyl-4-carboxylic Acid {4-[4-(2-hydroxy-4-ethyl-phenyl)-piperidin-1-yl]-butyl}-amide], which melting point is on record?
A: 252 °C

Q: With `Cc1ccc(C2CCN(CCCCNC(=O)c3ccc(-c4ccc(C#N)cc4)cc3)CC2)c(O)c1` [Example 20, 4′-Cyano-biphenyl-4-carboxylic Acid {4-[4-(2-hydroxy-4-methyl-phenyl)-piperidin-1-yl]-butyl}-amide] as the compound, how does the melting point read?
A: 184 °C

Q: For `CC(=O)Oc1cc(C)ccc1C1CCN(CCCCNC(=O)c2ccc(-c3ccc(C#N)cc3)cc2)CC1` [Example 21, Acetic Acid 2-(1-{4-[(4′-cyano-biphenyl-4-carbonyl)-amino]-butyl}-piperidin-4-yl)-5-methyl-phenyl Ester], which melting point is on record?
A: 128 to 130 °C
